Laboratory results: ChEMBL document CHEMBL3872264, “Discovery of biphenyl imidazole derivatives as potent antifungal agents: Design, synthesis, and structure-activity relationship studies” (Bioorg Med Chem, 2017)
Values after ≈ are worked out from the molar mass of the structure shown.

How the values were obtained:
Assay type in all cases: functional
Candida albicans [1] = test: Anti-fungal activity against Candida albicans CPCC 400523 by broth microdilution method
Aspergillus fumigatus = test: Anti-fungal activity against Aspergillus fumigatus CGMCC 3.7795 by broth microdilution method
Candida tropicalis = test: Anti-fungal activity against Candida tropicalis CGMCC 2.3739 by broth microdilution method
Candida albicans [2] = test: Anti-fungal activity against Candida albicans SC5314 by broth microdilution method
Cryptococcus neoformans = test: Anti-fungal activity against Cryptococcus neoformans CGMCC 2.3161 by broth microdilution method

| SMILES | MIC (Candida albicans [1]) | MIC (Aspergillus fumigatus) | MIC (Candida tropicalis) | MIC (Candida albicans [2]) | MIC (Cryptococcus neoformans) |
| --- | --- | --- | --- | --- | --- |
| COC(=O)[C@H](Cn1ccnc1)NC(=O)c1ccc(-c2ccccc2)cc1 | 2 µg/mL (≈ 5.72 µM) | > 16 µg/mL | 0.25 µg/mL (≈ 0.716 µM) | 2 µg/mL (≈ 5.72 µM) | > 16 µg/mL |
| CC(C)OC(=O)[C@H](Cn1ccnc1)NC(=O)c1ccc(-c2ccc(C(F)(F)F)cc2)cc1 | > 16 µg/mL | > 16 µg/mL | 2 µg/mL (≈ 4.49 µM) | > 16 µg/mL | > 16 µg/mL |
| CC(C)OC(=O)[C@H](Cn1ccnc1)NC(=O)c1ccc(-c2cccc(F)c2)cc1 | 0.25 µg/mL (≈ 0.632 µM) | > 16 µg/mL | 0.0625 µg/mL (≈ 0.158 µM) | 0.0625 µg/mL (≈ 0.158 µM) | 16 µg/mL (≈ 40.5 µM) |
| CC(C)COC(=O)[C@H](Cn1cncn1)NC(=O)c1ccc(-c2ccccc2)cc1 | 8 µg/mL (≈ 20.4 µM) | > 16 µg/mL | 4 µg/mL (≈ 10.2 µM) | 1 µg/mL (≈ 2.55 µM) | 16 µg/mL (≈ 40.8 µM) |
| COC(=O)[C@H](Cn1ccnc1)NC(=O)c1ccc(-c2ccccc2F)cc1 | 16 µg/mL (≈ 43.6 µM) | > 16 µg/mL | 4 µg/mL (≈ 10.9 µM) | 16 µg/mL (≈ 43.6 µM) | 2 µg/mL (≈ 5.44 µM) |
| CC(C)OC(=O)[C@H](Cn1ccnc1)NC(=O)c1ccc(-c2ccc(Cl)cc2)cc1 | 1 µg/mL (≈ 2.43 µM) | > 16 µg/mL | 0.25 µg/mL (≈ 0.607 µM) | 0.25 µg/mL (≈ 0.607 µM) | 16 µg/mL (≈ 38.8 µM) |
| CC(C)COC(=O)[C@H](Cn1ccnc1)NC(=O)c1ccc(-c2ccccc2Cl)cc1 | 2 µg/mL (≈ 4.7 µM) | > 16 µg/mL | 0.5 µg/mL (≈ 1.17 µM) | 0.5 µg/mL (≈ 1.17 µM) | 16 µg/mL (≈ 37.6 µM) |
| CC(C)OC(=O)[C@H](Cn1ccnc1)NC(=O)c1ccc(-c2ccccc2Cl)cc1 | 1 µg/mL (≈ 2.43 µM) | > 16 µg/mL | 0.5 µg/mL (≈ 1.21 µM) | 0.25 µg/mL (≈ 0.607 µM) | 16 µg/mL (≈ 38.8 µM) |
| CCCOC(=O)[C@H](Cn1ccnc1)NC(=O)c1ccc(-c2ccccc2F)cc1 | 0.25 µg/mL (≈ 0.632 µM) | > 16 µg/mL | 0.0625 µg/mL (≈ 0.158 µM) | 0.125 µg/mL (≈ 0.316 µM) | 0.5 µg/mL (≈ 1.26 µM) |
| CC(C)COC(=O)[C@H](Cn1ccnc1)NC(=O)c1ccc(-c2ccccc2)cc1 | 0.25 µg/mL (≈ 0.639 µM) | > 16 µg/mL | 0.0312 µg/mL (≈ 0.0798 µM) | 0.0312 µg/mL (≈ 0.0798 µM) | 1 µg/mL (≈ 2.55 µM) |
| CC(C)OC(=O)[C@H](Cn1ccnc1)NC(=O)c1ccc(-c2cccc(C#N)c2)cc1 | > 16 µg/mL | > 16 µg/mL | 8 µg/mL (≈ 19.9 µM) | > 16 µg/mL | > 16 µg/mL |
| Cc1ccccc1-c1ccc(C(=O)N[C@@H](Cn2ccnc2)C(=O)OC(C)C)cc1 | 2 µg/mL (≈ 5.11 µM) | > 16 µg/mL | 2 µg/mL (≈ 5.11 µM) | 0.5 µg/mL (≈ 1.28 µM) | 16 µg/mL (≈ 40.9 µM) |
| CC(C)OC(=O)[C@H](Cn1ccnc1)NC(=O)c1ccc(-c2ccc(F)c(F)c2)cc1 | > 16 µg/mL | > 16 µg/mL | 8 µg/mL (≈ 19.4 µM) | > 16 µg/mL | > 16 µg/mL |
| CCOC(=O)[C@H](Cn1ccnc1)NC(=O)c1ccc(-c2ccccc2F)cc1 | 1 µg/mL (≈ 2.62 µM) | > 16 µg/mL | 0.125 µg/mL (≈ 0.328 µM) | 0.25 µg/mL (≈ 0.655 µM) | 1 µg/mL (≈ 2.62 µM) |
